Columns and labels:
[1] = Stability study of Compound 1 (E920) on storage: purity by HPLC; type: physicochemical
Protocol: (§1) Compound 1 purity was determined by HPLC at two wavelengths 220 nm and 280 nm. Identification of Compound 1 was carried out by IR and NMR methods (^1H NMR, ^13C NMR). The residual solvents methanol and dichloromethane (DCM) were determined by gas chromatography (GC). Residual water content was determined by Karl Fisher analysis. Thermogravimetric analysis (TGA) of Compound 1 was also carried out with hold time of 10 minutes at final temperature of 105° C.
• Detector: UV/Vis or Diode Array Detector • Wavelength: Signal A: 280 nm, Bandwidth: 4 nm, Reference: OFF • Signal B: 220 nm, Bandwidth: 4 nm, Reference: OFF • Column: SunFire C18 Column (150×4.6 mm, 3.5 um) • Mobile Phase A: 0.06% TFA in H2O • Mobile Phase B: 0.04% TFA in (MeOH:H2O, 80:20)
• Autosampler Temperature: 6° C. • Column Temperature: 40° C. • Flow Rate: 1.0 mL/min • Injection Volume: 5 μL • Run Time: 30 min
• Accurately weigh approximately 10.0 mg of test sample into a 20 mL volumetric flask. • Dilute to volume with diluent and mix well. (0.5 mg/mL).
• Integrate all peaks≥0.05% a/a, not present in the blank solution. • ECA—Analytical Method—E920H2—for standard qualification
(§2) The stability profile of Compound 1 (Eurofins CDMO Alphora Inc. code: E920) was being evaluated over a period of 6 months under Long Term storage condition of <−20° C. and 6 months under accelerated condition of 25±2° C./60%±5% RH; and at intermediate storage conditions of 5±3° C. Additional samples are stored at each storage conditions to cover the stability studies up to 12 months, after 6 months satisfactory stability results. Attributes being tested include: description of composition, purity by HPLC, identification by HPLC and water content by Karl Fischer (KF) Method. This study is conducted in compliance with ICH Q1A (R2) and Alphora Standard Operating Procedure SOP LC027.
(§3) The stability profile of Compound 1 (Eurofins CDMO Alphora Inc. code: E920) was being evaluated over a period of up to 12 months under Long Term storage condition of <−20° C. and up to 12 months under accelerated condition of 25±2° C./60%±5% RH; and store only at intermediate storage conditions of 5±3° C. Attributes being tested include: description of composition, purity by HPLC, identification by HPLC and water content by Karl Fischer (KF) Method. This study is conducted in compliance with ICH Q1A (R2) and Alphora Standard Operating Procedure SOP LC027.

[2] = Stability study of Compound 1 (E920) on storage: water content by Karl Fischer; type: physicochemical
Protocol: as §1, §2, §3

In the case of `C[C@@](Cc1ccc(O)c(O)c1)(N/N=C/c1cc(O)c(O)c([N+](=O)[O-])c1)C(=O)O` [Compound 1, (2s)-2-[(E)-2-[(3,4-dihydroxy-5-nitrophenyl)methylidene]hydrazin-1-yl]-3-(3,4-dihydroxyphenyl)-2-methylpropanoic acid], the “% Purity at 220 nm by HPLC” value ([1]; 25° C./60% RH, 1 M) was 95.7%, the “% Purity at 280 nm by HPLC” value ([1]; 25° C./60% RH, 1 M) was 96.2% and the “% a/a Purity at 220 nm by HPLC” value ([1]; 25° C./60% RH, 1 M) was 95.7 % a/a. For the same molecule, the “% a/a Purity at 280 nm by HPLC” value ([1]; 25° C./60% RH, 1 M) was 96.2 % a/a, the “% Purity at 220 nm by HPLC” value ([1]; 25° C./60% RH, 3 M) was 93.9% and the “% Purity at 280 nm by HPLC” value ([1]; 25° C./60% RH, 3 M) was 94.9%. For the same molecule, the “% a/a Purity at 220 nm by HPLC” value ([1]; 25° C./60% RH, 3 M) was 93.9 % a/a, the “% a/a Purity at 280 nm by HPLC” value ([1]; 25° C./60% RH, 3 M) was 94.9 % a/a and the “% a/a Purity at 220 nm by HPLC” value ([1]; 25° C./60% RH, 6 M) was 94.8 % a/a. The “% a/a Purity at 280 nm by HPLC” value ([1]; 25° C./60% RH, 6 M) was 95.3 % a/a, the “% a/a Purity at 220 nm by HPLC” value ([1]; 25° C./60% RH, 12 M) was 93.2 % a/a and the “% a/a Purity at 280 nm by HPLC” value ([1]; 25° C./60% RH, 12 M) was 95.1 % a/a. The “% Purity at 220 nm by HPLC” value ([1]; Initial) was 95.4%, the “% Purity at 280 nm by HPLC” value ([1]; Initial) was 96.1% and the “% a/a Purity at 220 nm by HPLC” value ([1]; Initial (12-month study)) was 95.4 % a/a. The “% a/a Purity at 280 nm by HPLC” value ([1]; Initial (12-month study)) was 96.1 % a/a, the Three-month stability ([1]; −20° C. and 25° C./60% RH) was “satisfactory” and the Twelve-month stability ([1]; −20° C. and 25° C./60% RH) was “satisfactory”. For the same molecule, the “% Purity at 220 nm by HPLC” value ([1]; −20° C., 1 M) was 95.8%, the “% Purity at 280 nm by HPLC” value ([1]; −20° C., 1 M) was 96.0% and the “% a/a Purity at 220 nm by HPLC” value ([1]; −20° C., 1 M) was 95.8 % a/a. The “% a/a Purity at 280 nm by HPLC” value ([1]; −20° C., 1 M) was 96.0 % a/a, the “% Purity at 220 nm by HPLC” value ([1]; −20° C., 3 M) was 94.3% and the “% Purity at 280 nm by HPLC” value ([1]; −20° C., 3 M) was 95.2%. For the same molecule, the “% a/a Purity at 220 nm by HPLC” value ([1]; −20° C., 3 M) was 94.3 % a/a, the “% a/a Purity at 280 nm by HPLC” value ([1]; −20° C., 3 M) was 95.2 % a/a and the “% a/a Purity at 220 nm by HPLC” value ([1]; −20° C., 6 M) was 96.5% a/a. The “% a/a Purity at 280 nm by HPLC” value ([1]; −20° C., 6 M) was 96.1 % a/a, the “% a/a Purity at 220 nm by HPLC” value ([1]; −20° C., 12 M) was 95.9 % a/a and the “% a/a Purity at 280 nm by HPLC” value ([1]; −20° C., 12 M) was 96.6 % a/a. For the same molecule, the “% residual water content by KF” value ([2]; 25° C./60% RH, 1 M) was 1.63%, the “% residual water content by KF” value ([2]; 25° C./60% RH, 1 M (12-month study)) was 1.63% and the “% residual water content by KF” value ([2]; 25° C./60% RH, 3 M) was 2.05%. For the same molecule, the “% residual water content by KF” value ([2]; 25° C./60% RH, 3 M (12-month study)) was 2.05%, the “% residual water content by KF” value ([2]; 25° C./60% RH, 6 M) was 3.55% and the “% residual water content by KF” value ([2]; 25° C./60% RH, 12 M) was 4.02%. For the same molecule, the “% residual water content by KF” value ([2]; Initial) was 1.51%, the “% residual water content by KF” value ([2]; Initial (12-month study)) was 1.51% and the “% residual water content by KF” value ([2]; −20° C., 1 M) was 1.67%. For the same molecule, the “% residual water content by KF” value ([2]; −20° C., 1 M (12-month study)) was 1.67%, the “% residual water content by KF” value ([2]; −20° C., 3 M) was 1.96% and the “% residual water content by KF” value ([2]; −20° C., 3 M (12-month study)) was 1.96%. The “% residual water content by KF” value ([2]; −20° C., 6 M) was 3.35% and the “% residual water content by KF” value ([2]; −20° C., 12 M) was 4.08%.
